Reference: US12404283B2, “c-MYC mRNA translation modulators and uses thereof in the treatment of cancer” (Anima Biotech Inc., priority 2022, dated 2025)

These molecules were tested on c-Myc (assay: c-Myc immunofluorescence assay). Settings: A549 cells, 24 hours treatment, anti-c-Myc immunofluorescence.
Type: cell-based, human
How it was run: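 A549 cells grown 48 h, exposed 24 h to rising compound concentrations, then fixed, permeabilised and stained for c-Myc plus DAPI. Nuclear-segmented c-Myc fluorescence quantified by high-content imaging at 20×; EC50 from logistic dose–response fits.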

Compound	Myc Efficacy (−LogEC50)
CNC(=O)c1ccc(-c2cn3c(n2)sc2cc(C(=O)NC4(C(F)(F)F)COC4)ccc23)cc1 [compound 206, 2-(4-(methylcarbamoyl)phenyl)-N-(3-(trifluoromethyl)oxetan-3-yl)benzo[d]imidazo[2,1-b]thiazole-7-carboxamide]	− (− ≤3)
CNC(=O)c1ccc(-c2cn3c(n2)sc2cc(C(=O)N[C@H]4CCCN(C)C4)ccc23)cc1 [compound 207, (S)-2-(4-(methylcarbamoyl)phenyl)-N-(1-methylpiperidin-3-yl)benzo[d]imidazo[2,1-b]thiazole-7-carboxamide]	++ (++ ≥5 and <6)
CCC(CNC(=O)c1ccc2c(c1)sc1nc(-c3ccc(C(=O)NC)cc3)cn12)N(C)C (stereo not shown) [compound 208, N-(2-(dimethylamino)butyl)-2-(4-(methylcarbamoyl)phenyl) benzo[d]imidazo[2,1-b]thiazole-7-carboxamide]	+ (+ >3 and <5)
CNC(=O)c1ccc(-c2cn3c(n2)sc2cc(C(=O)N[C@H]4CCN(C5CCOCC5)C4)ccc23)cc1 [compound 209, (S)-2-(4-(methylcarbamoyl)phenyl)-N-(1-(tetrahydro-2H-pyran-4-yl)pyrrolidin-3-yl)benzo[d]imidazo[2,1-b]thiazole-7-carboxamide]	+ (+ >3 and <5)
CNC(=O)c1ccc(-c2cn3c(n2)sc2cc(C(=O)NCC4(C)CCOC4)ccc23)cc1 (stereo not shown) [compound 210, 2-(4-(methylcarbamoyl)phenyl)-N-((3-methyltetrahydrofuran-3-yl)methyl)benzo[d]imidazo [2,1-b]thiazole-7-carboxamide]	+ (+ >3 and <5)
CNC(=O)c1ccc(-c2cn3c(n2)sc2cc(C(=O)NCCOC(C)C)ccc23)cc1 [compound 211, N-(2-isopropalyethyl)-2-(4-(methylcarbamoyl)phenyl) benzo[d]imidazo[2,1-b]thiazole-7-carboxamide]	− (− ≤3)
CNC(=O)c1ccc(-c2cn3c(n2)sc2cc(C(=O)NC[C@H]4CCCN(C)C4)ccc23)cc1 [compound 212, (R)-2-(4-(methylcarbamoyl)phenyl)-N-((1-methylpiperidin-3-yl)methyl)benzo[d]imidazo [2,1-b]thiazole-7-carboxamide]	+ (+ >3 and <5)
CNC(=O)c1ccc(-c2cn3c(n2)sc2cc(C(=O)N[C@@H](CO)c4ccccc4)ccc23)cc1 [compound 213, (R)-N-(2-hydroxy-1-phenylethyl)-2-(4-(methylcarbamoyl)phenyl) benzo[d]imidazo[2,1-b]thiazole-7-carboxamide]	+ (+ >3 and <5)
CCN1CCC[C@@H]1CNC(=O)c1ccc2c(c1)sc1nc(-c3ccc(C(=O)NC)cc3)cn12 [compound 214, (R)-N-((1-ethylpyrrolidin-2-yl)methyl)-2-(4-(methylcarbamoyl)phenyl) benzo[d]imidazo[2,1-b]thiazole-7-carboxamide]	+ (+ >3 and <5)
CCN1CCC(CNC(=O)c2ccc3c(c2)sc2nc(-c4ccc(C(=O)NC)cc4)cn23)CC1 [compound 215, N-((1-ethylpiperidin-4-yl)methyl)-2-(4-(methylcarbamoyl)phenyl) benzo[d]imidazo[2,1-b]thiazole-7-carboxamide]	− (− ≤3)
CNC(=O)c1ccc(-c2cn3c(n2)sc2cc(C(=O)NCC4(N(C)C)CCCCC4)ccc23)cc1 [compound 216, N-((1-(dimethylamino)cyclohexyl)methyl)-2-(4-(methylcarbamoyl)phenyl) benzo[d]imidazo[2,1-b]thiazole-7-carboxamide]	+ (+ >3 and <5)
CNC(=O)c1ccc(-c2cn3c(n2)sc2cc(C(=O)NCCN(C(C)C)C(C)C)ccc23)cc1 [compound 217, N-(2-(diisopropylamino)ethyl)-2-(4-(methylcarbamoyl)phenyl) benzo[d]imidazo[2,1-b]thiazole-7-carboxamide]	+ (+ >3 and <5)
CCN(CC)CCCNC(=O)c1ccc2c(c1)sc1nc(-c3ccc(C(NC)C(F)(F)F)cc3)cn12 (stereo not shown) [compound 218, N-(3-(diethylamino)propyl)-2-(4-(2,2,2-trifluoro-1-(methylamino)ethyl)phenyl) benzo[d]imidazo[2,1-b]thiazole-7-carboxamide]	++ (++ ≥5 and <6)
CNC(=O)c1ccc(-c2cn3c(n2)sc2cc(C(=O)N[C@H]4COC[C@@H]4O)ccc23)cc1 [compound 219, N-((3S,4R)-4-hydroxytetrahydrofuran-3-yl)-2-(4-(methylcarbamoyl)phenyl) benzo[d]imidazo[2,1-b]thiazole-7-carboxamide]	+ (+ >3 and <5)
CNC(=O)c1ccc(-c2cn3c(n2)sc2cc(C(=O)N[C@@H](C)CN)ccc23)cc1 [compound 220, (S)-N-(1-aminopropan-2-yl)-2-(4-(methylcarbamoyl)phenyl) benzo[d]imidazo[2,1-b]thiazole-7-carboxamide]	+ (+ >3 and <5)
CNC(=O)c1ccc(-c2cn3c(n2)sc2cc(C(=O)NC(C)Cn4cccn4)ccc23)cc1 (stereo not shown) [compound 221, N-(1-(1H-pyrazol-1-yl)propan-2-yl)-2-(4-(methylcarbamoyl)phenyl) benzo[d]imidazo[2,1-b]thiazole-7-carboxamide]	+ (+ >3 and <5)

Compound	Myc Efficacy (−LogEC50)
CNC(=O)c1ccc(-c2cn3c(n2)sc2cc(C(=O)N[C@H]4CCNC4)ccc23)cc1 [compound 222, (S)-2-(4-(methylcarbamoyl)phenyl)-N-(pyrrolidin-3-yl)benzo[d]imidazo[2,1-b]thiazole-7-carboxamide]	+ (+ >3 and <5)
CNC(=O)c1ccc(-c2cn3c(n2)sc2cc(C(=O)NCc4nncn4C4CC4)ccc23)cc1 [compound 223, N-((4-cyclopropyl-4H-1,2,4-triazol-3-yl)methyl)-2-(4-(methylcarbamoyl)phenyl) benzo[d]imidazo[2,1-b]thiazole-7-carboxamide]	− (− ≤3)
CNC(=O)c1ccc(-c2cn3c(n2)sc2cc(C(=O)NC[C@H]4CCCN4)ccc23)cc1 [compound 224, (R)-2-(4-(methylcarbamoyl)phenyl)-N-(pyrrolidin-2-ylmethyl)benzo[d]imidazo[2,1-b]thiazole-7-carboxamide]	− (− ≤3)
CNC(=O)c1ccc(-c2cn3c(n2)sc2cc(C(=O)N[C@H]4CCN(C)C4)ccc23)cc1 [compound 225, (S)-2-(4-(methylcarbamoyl)phenyl)-N-(1-methylpyrrolidin-3-yl)benzo[d]imidazo[2,1-b]thiazole-7-carboxamide]	+ (+ >3 and <5)
CNC(=O)c1ccc(-c2cn3c(n2)sc2cc(C(=O)NCC4CC(O)C4)ccc23)cc1 (stereo not shown) [compound 226, N-((3-hydroxycyclobutyl)methyl)-2-(4-(methylcarbamoyl)phenyl) benzo[d]imidazo[2,1-b]thiazole-7-carboxamide]	− (− ≤3)
CNC(=O)c1ccc(-c2cn3c(n2)sc2cc(C(=O)N[C@H]4CCCNC4)ccc23)cc1 [compound 227, (S)-2-(4-(methylcarbamoyl)phenyl)-N-(piperidin-3-yl)benzo[d] imidazo[2,1-b]thiazole-7-carboxamide]	++ (++ ≥5 and <6)
CNC(=O)c1ccc(-c2cn3c(n2)sc2cc(C(=O)N[C@H]4CCCCN(C)C4=O)ccc23)cc1 [compound 228, (S)-N-(1-methyl-2-oxoazepan-3-yl)-2-(4-(methylcarbamoyl)phenyl) benzo[d]imidazo[2,1-b]thiazole-7-carboxamide]	+ (+ >3 and <5)
CNCCCCNC(=O)c1ccc2c(c1)sc1nc(-c3ccc(C(=O)NC)cc3)cn12 [compound 229, N-(4-(methylamino)butyl)-2-(4-(methylcarbamoyl)phenyl) benzo[d]imidazo[2,1-b]thiazole-7-carboxamide]	+ (+ >3 and <5)
CNC(=O)c1ccc(-c2cn3c(n2)sc2cc(C(=O)NCC4CCC5(CCNCC5)O4)ccc23)cc1 (stereo not shown) [compound 230, N-((1-oxa-8-azaspiro[4.5]decan-2-yl)methyl)-2-(4-(methylcarbamoyl)phenyl) benzo[d]imidazo[2,1-b]thiazole-7-carboxamide]	+ (+ >3 and <5)
CNC(=O)c1ccc(-c2cn3c(n2)sc2cc(C(=O)N[C@H]4CN5CCC4CC5)ccc23)cc1 [compound 231, (R)-2-(4-(methylcarbamoyl)phenyl)-N-(quinuelidin-3-yl)benzo[d]imidazo[2,1-b]thiazole-7-carboxamide]	− (− ≤3)
CNC(=O)c1ccc(-c2cn3c(n2)sc2cc(C(=O)NCCCn4nc(C)cc4C)ccc23)cc1 [compound 232, N-(3-(3,5-dimethyl-1H-pyrazol-1-yl)propyl)-2-(4-(methylcarbamoyl)phenyl) benzo[d]imidazo[2,1-b]thiazole-7-carboxamide]	− (− ≤3)
CCN1CCC(CNC(=O)c2ccc3c(c2)sc2nc(-c4ccc(C(=O)NC)cc4)cn23)C1 (stereo not shown) [compound 233, N-((1-ethylpyrrolidin-3-yl)methyl)-2-(4-(methylcarbamoyl)phenyl) benzo[d]imidazo[2,1-b]thiazole-7-carboxamide]	− (− ≤3)
CNC(=O)c1ccc(-c2cn3c(n2)sc2cc(C(=O)NC(C)C4CCOCC4)ccc23)cc1 (stereo not shown) [compound 234, 2-(4-(methylcarbamoyl)phenyl)-N-(1-(tetrahydro-2H-pyran-4-yl)ethyl)benzo[d]imidazo [2,1-b]thiazole-7-carboxamide]	+ (+ >3 and <5)
CNC(=O)c1ccc(-c2cn3c(n2)sc2cc(C(=O)NCCCn4ccnc4)ccc23)cc1 [compound 235, N-(3-(1H-imidazol-1-yl)propyl)-2-(4-(methylcarbamoyl)phenyl) benzo[d]imidazo[2,1-b]thiazole-7-carboxamide]	+ (+ >3 and <5)
CNC(=O)c1ccc(-c2cn3c(n2)sc2cc(C(=O)NC4CC(=O)N(C)C4)ccc23)cc1 (stereo not shown) [compound 236, N-(1-methyl-5-oxopyrrolidin-3-yl)-2-(4-(methylcarbamoyl)phenyl) benzo[d]imidazo[2,1-b]thiazole-7-carboxamide]	− (− ≤3)
